# Results reported in PubChem BioAssay (NCI).
#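 Briefly, cells in 96-well plates were exposed to five compound concentrations for 48 h, and endpoints were estimated by linear interpolation. TGI is the concentration that stops growth completely.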
# Experiments:
# Assay in all cases: DTP human tumour cell line panel, 48 h
# A549 NSCLC = test system: A549 NSCLC
# CAKI-1 renal = test system: CAKI-1 renal
# CCRF-CEM leukemia = test system: CCRF-CEM leukemia
# COLO 205 colon = test system: COLO 205 colon
# HCT-116 colon = test system: HCT-116 colon
# HL-60(TB) leukemia = test system: HL-60(TB) leukemia
# HS 578T breast = test system: HS 578T breast
# IGROV1 ovarian = test system: IGROV1 ovarian
# KM12 colon = test system: KM12 colon
# LOX IMVI melanoma = test system: LOX IMVI melanoma
# MALME-3M melanoma = test system: MALME-3M melanoma
# MDA-MB-435 = test system: MDA-MB-435
# NCI-H226 lung = test system: NCI-H226 lung
# NCI/ADR-RES ovarian = test system: NCI/ADR-RES ovarian
# RPMI-8226 leukemia = test system: RPMI-8226 leukemia
# SF-268 CNS = test system: SF-268 CNS
# SF-539 CNS = test system: SF-539 CNS
# SK-MEL-28 melanoma = test system: SK-MEL-28 melanoma
# UACC-62 melanoma = test system: UACC-62 melanoma
# UO-31 renal = test system: UO-31 renal
SMILES,TGI (A549 NSCLC) [µM],TGI (CAKI-1 renal) [µM],TGI (CCRF-CEM leukemia) [µM],TGI (COLO 205 colon) [µM],TGI (HCT-116 colon) [µM],TGI (HL-60(TB) leukemia) [µM],TGI (HS 578T breast) [µM],TGI (IGROV1 ovarian) [µM],TGI (KM12 colon) [µM],TGI (LOX IMVI melanoma) [µM],TGI (MALME-3M melanoma) [µM],TGI (MDA-MB-435) [µM],TGI (NCI-H226 lung) [µM],TGI (NCI/ADR-RES ovarian) [µM],TGI (RPMI-8226 leukemia) [µM],TGI (SF-268 CNS) [µM],TGI (SF-539 CNS) [µM],TGI (SK-MEL-28 melanoma) [µM],TGI (UACC-62 melanoma) [µM],TGI (UO-31 renal) [µM]
Nc1[nH]c(=O)nc2snnc12,> 100,> 28.8,> 100,> 100,> 100,> 100,> 100,> 100,> 100,65.2,> 100,> 100,> 100,> 100,> 100,> 51.7,> 100,96.9,> 78.3,> 31.2
N=c1oc2ccccc2cc1-c1nc2ccccc2[nH]1,> 100,> 100,> 100,> 100,> 100,87,> 100,> 100,> 100,> 100,72,48.2,> 100,64.2,> 100,> 100,> 100,> 100,> 100,24.8
c1ccc2cc3c(NC4=NCCO4)cccc3cc2c1,> 100,> 100,81.6,> 100,> 100,52.1,> 100,> 100,> 100,95,> 100,98.8,> 100,> 100,> 100,> 100,> 100,> 100,> 100,> 100
COC(=O)C1Cc2c(OC)ccc(OC)c2C(O)C1C(=O)OC (stereo not given),> 100,> 100,> 100,> 100,> 100,> 100,> 100,> 100,> 100,> 100,> 100,> 100,> 100,> 100,> 100,> 100,> 100,> 100,> 100,> 100
N#Cc1c2ccc([N+](=O)[O-])cc2c(=O)n2c1[nH]c1ccc(C(F)(F)F)cc12,> 100,> 100,> 100,> 46.3,> 41.6,> 100,> 100,> 100,> 100,45.6,> 100,> 100,> 88.3,> 100,13.6,> 100,> 100,> 85.4,> 100,56.9
